# Test results taken from paper PMC10398856 (ACS Omega, 2023).
# Legend:
# [1] = system: SARS-CoV-2 NIV2020-770 (D614G variant); type: cell-based; conditions: read-out: IC50, antiviral effect on SARS-CoV-2 NIV2020-770 (D614G variant)
# [2] = system: SARS-CoV-2 Delta (B.617.2 variant); assay: microbe, parasite or virus in culture; type: cell-based; conditions: Severe acute respiratory syndrome coronavirus 2, read-out: IC50, antiviral effect on SARS-CoV-2 Delta (B.617.2 variant)
Structure (SMILES),IC50 [1],IC50 [2]
"O=c1cc(OCCOc2ccnc(SCc3ccc(F)cc3)n2)c2ccccc2o1 [5a, 4-(2-((2-((4-Fluorobenzyl)thio)pyrimidin-4-yl)oxy)ethoxy)-2H-chromen-2-one]",< 50 µM,< 25 µM
"O=c1cc(OCCCOc2ccnc(SCc3ccc(F)cc3)n2)c2ccccc2o1 [5b, 4-(3-((2-((4-Fluorobenzyl)thio)pyrimidin-4-yl)oxy)propoxy)-2H-chromen-2-one]",< 10 µM,< 2.5 µM
"O=c1cc(OCCOc2ccnc(SCc3ccc(F)cc3)n2)c2cc(F)ccc2o1 [5c, 6-Fluoro-4-(2-((2-((4-fluorobenzyl)thio)pyrimidin-4-yl)oxy)ethoxy)-2H-chromen-2-one]",< 2.5 µM,< 10 µM
"O=c1cc(OCCCOc2ccnc(SCc3ccc(F)cc3)n2)c2cc(F)ccc2o1 [5d, 6-Fluoro-4-(3-((2-((4-fluorobenzyl)thio)pyrimidin-4-yl)oxy)propoxy)-2H-chromen-2-one]",< 10 µM,< 10 µM
"Cc1cccc(CSc2nccc(OCCOc3cc(=O)oc4ccccc34)n2)c1 [5e, 4-(2-((2-((3-Methylbenzyl)thio)pyrimidin-4-yl)oxy)ethoxy)-2H-chromen-2-one]",< 25 µM,< 10 µM
"Cc1cccc(CSc2nccc(OCCCOc3cc(=O)oc4ccccc34)n2)c1 [5f, 4-(3-((2-((3-Methylbenzyl)thio)pyrimidin-4-yl)oxy)propoxy)-2H-chromen-2-one]",< 25 µM,< 2.5 µM
"Cc1cccc(CSc2nccc(OCCOc3cc(=O)oc4ccc(F)cc34)n2)c1 [5g, 6-Fluoro-4-(2-((2-((3-methylbenzyl)thio)pyrimidin-4-yl)oxy)ethoxy)-2H-chromen-2-one]",< 25 µM,< 10 µM
"Cc1cccc(CSc2nccc(OCCCOc3cc(=O)oc4ccc(F)cc34)n2)c1 [5h, 6-Fluoro-4-(3-((2-((3-methylbenzyl)thio)pyrimidin-4-yl)oxy)propoxy)-2H-chromen-2-one]",< 2.5 µM,< 10 µM
"O=c1cc(OCCOc2ccnc(SCc3ccc(Cl)cc3)n2)c2ccccc2o1 [5i, 4-(2-((2-((4-Chlorobenzyl)thio)pyrimidin-4-yl)oxy)ethoxy)-2H-chromen-2-one]",< 10 µM,< 2.5 µM
